Tests used:
[1] = system: Enterovirus 71 (EV71) H strain; assay: In vitro anti-EV71 activity (antiviral activity in RD cells, CellTiter-Glo); type: cell-based; settings: for in vitro anti-EV71 activity, in words: EV71, RD cells; for IC50: Enterovirus A, 96 h, EV71 H strain, RD cells, 4 days, CellTiter-Glo, read-out: IC50
Procedure, shortened: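 RD cells infected with 100TCID50 EV71 in DMEM+2% FBS, with compound in 10-point three-fold dilutions, cultured 4 days at 37° C. Cell viability by CellTiter-Glo luminescence; inhibition rate relative to cell control fitted to S-curve for IC50. TD50 derived likewise; SI=TD50/IC50.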

mTOR kinase = target: T1, mTOR kinase (Homo sapiens, UniProt P42345); assay: In vitro inhibitory activity on mTOR kinase (TR-FRET, GFP-4E-BP1 substrate); type: biochemical; settings: for IC50: 0.5 μg/mL mTOR, 0.4 μM GFP-4E-BP1, 3 μM ATP
T1 construct: purchased Thermo Fisher PV4753
Description: Preparation of Reaction Buffers:
Basic buffer composition: 50 mM (mmol/L) HEPES (pH 7.5), 1 mM EGTA, 0.01% Tween-20, 10 mM MnCl2, 2 mM DTT (diluted from 500 mM before used).
(2) mTOR kinase buffer solution: 1650 μL of 2.5×mTOR kinase buffer solution was composed of 1640.2 μL of 1× basic buffer and 9.8 μL of mTOR (0.21 mg/mL stock solution), and the final concentration was 0.5 μg/mL.
(3) Detection buffer solution: 3960 μL of 2× detection buffer solution was composed of 3797.1 μL of TR-FRET buffer diluent (purchased from Thermo Fisher, catalog number: PV3574), 4.5 μL of Tb-anti-p4E-BP1 antibody (3.49 μM stock solution, purchased from Thermo Fisher, catalog number: PV4757) and 158 μL of EDTA (500 mM stock solution), and the final concentrations were 2 nM Tb-anti-p4E-BP1 antibody and 10 mM EDTA.
(1) 20 μL of 100% DMSO solution containing 5 mM compound to be tested was added to a 96-well plate.
(2) The compound was serially diluted 3 times in DMSO.
(3) 1 μL of the compound in the previous step was taken, diluted with 19 μL of mTOR kinase buffer, and transferred to another 96-well plate.
(4) 4 μL of mTOR kinase solution (purchased from Thermo Fisher, catalog number: PV4753) was added to a 384-well plate.
(5) 2 μL of the compound in G was taken out and added to the 384-well plate with mTOR kinase, and incubated at room temperature for 15 minutes.
(6) 4 μL of substrate solution was added to initiate the reaction.
The final concentrations of mTOR reaction solution were: 0.5 μg/mL mTOR, 0.4 μM GFP-4E-BP1, 3 μM ATP.
The final concentration of the DMSO solution was 1%.
(7) Incubation was performed for 60 minutes at room temperature.
(8) 10 μL of detection buffer was added. The final concentrations were 2 nM Tb-anti-p4E-BP1 antibody and 10 mM EDTA.
(9) Incubation was performed for 30 minutes at room temperature.
(10) TR-FRET value was read on MD5 multi-mode plate reader (Molecular Devices). The excitation wavelength was 340 nm, the emission wavelength 1 was 495 nm, and the emission wavelength 2 was 520 nm. The ratio of 520 nm/495 nm readings was calculated as TR-FRET value.
IC50 of compound was fitted by nonlinear regression equation:
Y=Bottom+(Top-Bottom)/(1+10^((LogIC50-X)*HillSlope));
X: common logarithm value of compound concentration; Y: TR-FRET value (520 nm/495 nm).

RD cells = assay: Detection of cytotoxicity in RD cells (CellTiter-Glo); type: cell-based; settings: 4 days, CellTiter-Glo, median toxic dose
Procedure, shortened: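 RD cells (1*10^5/mL) cultured 4 days at 37 °C with 10 compound concentrations from 3-fold dilution of a 400 μM pretreatment solution, final being 0.5 times that. Viability by CellTiter-Glo luminescence versus cell control; TD50 from S-curve fit; SI=TD50/IC50.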

mTORC1 = target: T2, mTORC1 (Homo sapiens, UniProt P42345); assay: Western blot, phosphorylation of Thr389 of p70S6K1 in RD cells (mTORC1 inhibition); type: cell-based; settings: 20 μM, 2 hours, Western blot (FIG. 1)
T2 construct: endogenous in cells; host or cells: RD cells
Description: (§1) In order to test the inhibitory activity of the synthesized compounds on the two mTOR complexes, the inhibitory activity experiments of mTORC1 and mTORC2 were carried out. Since mTORC1 and mTORC2 exerted their function by activating the phosphorylation of downstream substrates, the inhibitory activity of the compounds on mTORC1 and mTORC2 could be determined by detecting the phosphorylation levels of the Thr389 site of mTORC1 downstream substrate p70S6K1 and the Ser473 site of mTORC2 downstream substrate Akt.
(§2) Pretreatment of Compound:
(§3) (1) RD cells were cultured in DMEM medium containing 10% FBS and 1×PS (penicillin and streptomycin were at concentrations 100 IU and 100 μg/mL, respectively) at 37° C. and 5% CO2.
(§4) (2) The RD cells (5×10^5 cells/2 mL medium) were inoculated into a 6-well plate and incubated at 37° C. and 5% CO2 for 24 hours.
(§5) (3) The cells were washed once with PBS, and the cells were cultured in serum-free medium without nutrients overnight.
(§6) (4) Formulation of compounds: […]
(§7) Preparation of insulin medium: Insulin was diluted in DMEM medium containing 10% FBS and 1×PS so that the final concentration of insulin was 167 nM.
(§8) Pretreatment of compound to be tested: The compound was dissolved in DMSO so that the concentration of the test compound was 20 mM, and the compound was diluted in 167 nM insulin medium to reach a concentration of 20 μM.
(§9) Preparation of rapamycin solution: Rapamycin was dissolved in DMSO to a concentration of 10 mM, and the rapamycin was diluted in 167 nM insulin medium to reach a concentration of 20 μM.
(§10) (5) The serum-free medium in each well was removed.
(§11) (6) 2 mL of complete medium containing DMSO was added to each well as a control carrier. The final concentration of DMSO was 0.2%.
(§12) (7) 2 mL of 20 μM rapamycin solution and 20 μM the compound to be tested were added to the designated wells, respectively. The final concentration of DMSO was 0.2%.
(§13) (8) The cells were incubated for 2 hours at 37° C. and 5% CO2.
(§14) Protein extraction and concentration determination:
(§15) (1) The cells were washed once with refrigerated PBS, and then the PBS was discarded.
(§16) (2) 150 μL of cell extraction buffer (RIPA, […], catalog number: C1053) was transferred into each well to lyse the cells, and then the resulting cell solution were incubated on ice for 30 minutes.
(§17) (3) Centrifugation was performed at 14000 rpm (13000× g) for 30 minutes at 4° C.
(§18) (4) The supernatant was transferred into a new eppendorf tube, and the cell lysate was stored at −80° C. before testing.
(§19) (5) The protein concentration was determined by BCA method.
(§20) Preparation of Buffer Solutions:
(§21) (1) 100× Protease inhibitor (Beyotime, catalog number: P1005): 1 mL of redistilled water was added to the protease inhibitor and stirred gently until the solid was completely dissolved.
(§22) (2) Lysis Buffer: […] of 100× protease inhibitor and 2× phosphatase inhibitor Cocktails PhosSTOP (Beyotime, catalog number: P1082) were added to 100 mL of the cell extract, and stirred gently until it was completely dissolved.
(§23) (3) Electrophoresis Running Buffer:
(§24) 10×MOPS buffer: 52.33 g of MOPS, 30.29 g of Tris base, 10 mL of 0.5 mol/L EDTA (pH 8.5) and 5 g of SDS was dissolved in 400 mL of redistilled water, stirred to dissolve, and the pH was adjusted to 7.5, then redistilled water was added again to reach a volume of 500 mL; 1×MOPS: 100 mL of 10×MOPS was diluted with redistilled water to 1000 mL.
(§25) (4) 1× Transfer Buffer: […] of 10× transfer buffer (144 g of glucine, 30.3 g of trisbase, and distilled water were mixed to reach a volume of 1 L) and 400 mL of methanol were dissolved in 1500 mL of redistilled water, and then the redistilled water was added to reach a volume of 2000 mL. […]

mTORC2 = target: T3, mTORC2 (Homo sapiens, UniProt P42345); assay: Western blot, phosphorylation of Ser473 of Akt in RD cells (mTORC2 inhibition); type: cell-based; settings: 20 μM, 2 hours, Western blot (FIG. 1)
T3 construct: endogenous in cells; host or cells: RD cells
Description: as §1, §2, §3, §4, §5, §6, §7, §8, §9, §10, §11, §12, §13, §14, §15, §16, §17, §18, §19, §20, §21, §22, §23, §24, §25

SMILES | in vitro anti-EV71 activity, in words [1] | IC50 [1] | inhibitory activity on mTOR kinase, in words (mTOR kinase) | IC50 (mTOR kinase) | melting point | TD50 (RD cells) | p70 phosphorylation expression level (mTORC1) | phosphorylation expression level of Akt (mTORC2)
Cc1ccc(-c2ccc3ncc4oc(=O)n(-c5cccc(C(F)(F)F)c5)c4c3c2)cn1 [HTL-5-23, 8-[3-(6-methyl)pyridyl]-1-[3-(trifluoromethyl)phenyl]oxazolo[5,4-c] quinolin-2(1H)-one] | moderate inhibitory activity | 4.78 ± 1.73 µM | moderate inhibitory activity | 0.257 µM | 299 to 300 °C | 16.88 ± 5.46 µM | – | –
COc1ncccc1-c1ccc2ncc3ccc(=O)n(-c4cccc(C(F)(F)F)c4)c3c2c1 [HTL-7-02, 9-[3-(2-methoxy)pyridyl]-2-oxo-1-[3-(trifluoromethyl)phenyl]-1,2-dihydrobenzo[h][1,6]naphthyridine] | – | > 200 µM | moderate inhibitory activity | 0.974 µM | – | >200 µM | – | –
Cc1noc(C)c1-c1ccc2ncc3ccc(=O)n(-c4cccc(C(F)(F)F)c4)c3c2c1 [HTL-7-12, 9-[4-(3,5-dimethyl)isoxazolyl]-2-oxo-1-[3-(trifluoromethyl)phenyl]-1,2-dihydrobenzo[h][1,6]naphthyridine] | – | 36.9 ± 0.41 µM | – | 1.21 µM | 121 to 122 °C | >200 µM | – | –
CC(=O)/C=C/c1cnc2ccc(-c3ccc(N)cc3)cc2c1Nc1cccc(C(F)(F)F)c1 [HTL-2-35, (E)-6-(4-amino)phenyl-4-[3-(trifluoromethyl)phenyl]aminoquinoline-3-butenone] | moderate anti-EV71 activity | 3.7 ± 0.01 µM | weak inhibitory activity | 7.77 µM | 183 to 185 °C | 5.14 ± 1.92 µM | – | –
CC(C)C(=O)Nc1ccc(-c2ccc3ncc4ccc(=O)n(-c5cccc(C(F)(F)F)c5)c4c3c2)cn1 [HTL-7-07, 9-[3-(2-isobutyrylamino)pyridyl]-2-oxo-1-[3-(trifluoromethyl)phenyl]-1,2-dihydrobenzo[h][1,6]naphthyridine] | – | 0.38 ± 0.39 µM | – | – | – | 0.46 ± 0.03 µM | significantly down-regulate | significantly down-regulate
NC(=O)NC/C=C/c1ccc2ncc3oc(=O)n(-c4cccc(C(F)(F)F)c4)c3c2c1 [HTL-6-34, (E)-8-(3-ureido-propenyl)-1-[3-(trifluoromethyl)phenyl]oxazolo[5,4-c]quinolin-2(1H)-one] | – | > 200 µM | moderate inhibitory activity | 0.849 µM | – | 66.64 ± 1.17 µM | – | –
CC(=O)/C=C/c1cnc2ccc(-c3cccs3)cc2c1Nc1cccc(C(F)(F)F)c1 [HTL-3-24, (E)-6-(2-thienyl)-4-[3-(trifluoromethyl)phenyl]aminoquinoline-3-butenone] | – | > 200 µM | – | – | 181 to 185 °C | 1.35 ± 1.16 µM | – | –
